Source: ChEMBL document CHEMBL2057208, “Benzoylbenzimidazole-based selective inhibitors targeting Cryptosporidium parvum and Toxoplasma gondii calcium-dependent protein kinase-1” (Bioorg Med Chem Lett, 2012)
Activity calls are given as the source filed them. The calls are words filed in the database; no cut-off is given here.

Tests used:
[1] = tested on: Cryptosporidium parvum; assay: Antiparasitic activity against Cryptosporidium parvum up to 1 uM; format: functional, organism-based
[2] = Inhibition of Cryptosporidium parvum CDPK1
[3] = molecular target: T1, Calmodulin-domain protein kinase 1 (Toxoplasma gondii, UniProt Q9BJF5); assay: Inhibition of Toxoplasma gondii CDPK1
T1 sequence (Q9BJF5 whole entry): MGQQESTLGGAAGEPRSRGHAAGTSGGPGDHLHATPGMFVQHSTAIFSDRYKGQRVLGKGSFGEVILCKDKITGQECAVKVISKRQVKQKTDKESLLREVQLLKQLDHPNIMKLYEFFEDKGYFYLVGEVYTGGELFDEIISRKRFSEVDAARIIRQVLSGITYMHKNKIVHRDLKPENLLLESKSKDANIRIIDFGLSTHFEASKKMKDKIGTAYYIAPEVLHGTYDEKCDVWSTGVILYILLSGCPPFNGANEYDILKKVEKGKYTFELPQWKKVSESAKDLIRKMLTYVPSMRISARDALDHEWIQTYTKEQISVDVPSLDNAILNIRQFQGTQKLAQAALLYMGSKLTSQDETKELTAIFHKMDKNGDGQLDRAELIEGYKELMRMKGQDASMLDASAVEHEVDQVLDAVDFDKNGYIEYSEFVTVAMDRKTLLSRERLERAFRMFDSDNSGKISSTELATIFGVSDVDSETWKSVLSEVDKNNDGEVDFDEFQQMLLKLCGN

[4] = tested on: Toxoplasma gondii; assay: Antiparasitic activity against Toxoplasma gondii up to 1 uM; format: functional, organism-based
[5] = cells; details: Homo sapiens, CRL8155
[6] = tested on: HL-60; assay: cells; details: Homo sapiens
[7] = molecular target: Tyrosine-protein kinase ABL1 (Homo sapiens, UniProt P00519); assay: Inhibition of human ABL
Chain of Tyrosine-protein kinase ABL1 (P00519 whole entry): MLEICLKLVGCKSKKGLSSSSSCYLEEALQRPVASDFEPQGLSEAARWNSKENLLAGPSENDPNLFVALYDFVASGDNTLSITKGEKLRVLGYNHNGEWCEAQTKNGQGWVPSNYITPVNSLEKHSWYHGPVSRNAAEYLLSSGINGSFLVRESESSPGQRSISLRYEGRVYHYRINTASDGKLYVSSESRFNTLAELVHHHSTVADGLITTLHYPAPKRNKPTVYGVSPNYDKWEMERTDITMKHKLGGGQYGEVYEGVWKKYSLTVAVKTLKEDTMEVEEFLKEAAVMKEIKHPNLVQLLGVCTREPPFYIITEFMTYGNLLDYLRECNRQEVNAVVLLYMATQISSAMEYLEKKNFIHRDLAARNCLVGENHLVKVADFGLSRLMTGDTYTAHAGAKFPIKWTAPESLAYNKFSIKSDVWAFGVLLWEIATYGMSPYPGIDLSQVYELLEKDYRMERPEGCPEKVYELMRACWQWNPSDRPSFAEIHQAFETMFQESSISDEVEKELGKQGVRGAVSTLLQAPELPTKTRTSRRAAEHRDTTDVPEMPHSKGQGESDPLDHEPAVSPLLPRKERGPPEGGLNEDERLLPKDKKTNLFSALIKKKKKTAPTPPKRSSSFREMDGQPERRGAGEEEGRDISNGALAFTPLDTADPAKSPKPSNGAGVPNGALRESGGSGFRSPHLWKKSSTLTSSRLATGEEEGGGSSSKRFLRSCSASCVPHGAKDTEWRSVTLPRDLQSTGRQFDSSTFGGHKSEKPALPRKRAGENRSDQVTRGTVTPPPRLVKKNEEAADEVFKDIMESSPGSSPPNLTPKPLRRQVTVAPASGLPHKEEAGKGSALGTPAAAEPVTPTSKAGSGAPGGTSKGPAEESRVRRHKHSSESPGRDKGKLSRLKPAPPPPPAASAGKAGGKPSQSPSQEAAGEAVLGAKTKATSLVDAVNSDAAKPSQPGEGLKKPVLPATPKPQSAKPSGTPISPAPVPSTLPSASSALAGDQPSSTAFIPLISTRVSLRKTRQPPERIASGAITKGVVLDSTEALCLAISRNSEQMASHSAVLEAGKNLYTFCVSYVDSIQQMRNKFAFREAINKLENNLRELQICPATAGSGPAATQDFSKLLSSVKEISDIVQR

[8] = molecular target: Proto-oncogene tyrosine-protein kinase Src (Homo sapiens, UniProt P12931); assay: Inhibition of human SRC
Chain of Proto-oncogene tyrosine-protein kinase Src (P12931 2-536 limits assumed): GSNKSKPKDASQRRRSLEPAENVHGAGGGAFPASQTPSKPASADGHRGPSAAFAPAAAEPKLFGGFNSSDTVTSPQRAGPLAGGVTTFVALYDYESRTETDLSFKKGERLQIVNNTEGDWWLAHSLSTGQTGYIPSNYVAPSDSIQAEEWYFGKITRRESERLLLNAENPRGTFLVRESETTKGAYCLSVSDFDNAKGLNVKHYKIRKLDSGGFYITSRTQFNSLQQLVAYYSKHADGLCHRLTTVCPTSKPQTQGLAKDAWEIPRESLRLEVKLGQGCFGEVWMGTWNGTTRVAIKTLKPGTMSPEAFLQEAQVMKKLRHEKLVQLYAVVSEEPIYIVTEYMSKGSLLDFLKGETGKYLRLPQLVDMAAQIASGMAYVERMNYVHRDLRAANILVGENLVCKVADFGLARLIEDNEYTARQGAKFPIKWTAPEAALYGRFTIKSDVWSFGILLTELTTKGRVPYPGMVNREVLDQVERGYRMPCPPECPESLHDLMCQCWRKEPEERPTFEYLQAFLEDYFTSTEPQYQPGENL

| IC50 [2] [µM] | EC50 [5] [µM] | EC50 [6] [µM] | IC50 [7] [µM] | IC50 [8] [µM] | SMILES | Activity [1] | IC50 [3] [µM] | Activity [4] |
| --- | --- | --- | --- | --- | --- | --- | --- | --- |
| 0.091 | > 30 | > 30 |  |  | NCCCC(=O)Nc1nc2ccc(C(=O)c3ccccc3)cc2[nH]1 | inactive | 0.069 | inactive |
| 0.15 | > 30 | > 30 |  |  | NCCCCNC(=O)Nc1nc2ccc(C(=O)c3ccccc3)cc2[nH]1 | inactive | 0.14 | inactive |
| 0.23 | > 30 | > 30 |  |  | CC(C)Cn1c(N)nc2ccc(C(=O)c3ccccc3)cc21 | inactive | 0.067 | inactive |
| 0.79 | > 30 | > 30 |  |  | CN1CCC[C@@H]1Cn1c(N)nc2ccc(C(=O)c3ccccc3)cc21 | inactive | 0.66 | inactive |
| > 3 | > 30 | > 30 |  |  | O=C(c1ccccc1)c1ccc2nc(NCCC3CCCNC3)[nH]c2c1 (stereo not given) | inactive | > 3 | inactive |
| 0.026 | > 30 | > 30 | > 10 | > 10 | CN1CCC(CCn2c(N)nc3ccc(C(=O)c4ccccc4)cc32)CC1 | inactive | 0.03 | inactive |
| 0.6 | > 30 | > 30 |  | > 10 | Nc1nc2ccc(C(=O)c3ccccc3)cc2[nH]1 | inactive | 0.23 | inactive |
| 0.072 | > 30 | > 30 |  |  | NCCCCCCC(=O)Nc1nc2ccc(C(=O)c3ccccc3)cc2[nH]1 | inactive | 0.022 | inactive |
| 0.83 | > 30 | > 30 |  |  | Nc1nc2ccc(C(=O)c3ccccc3)cc2n1CCc1ccccn1 | inactive | 0.26 | inactive |
| 0.26 | > 30 | > 30 |  |  | Nc1nc2ccc(C(=O)c3ccccc3)cc2n1C[C@@H]1CCCN1 | inactive | 0.41 | inactive |
| 0.26 | > 30 | > 30 |  |  | CN1CCC(Cn2c(N)nc3ccc(C(=O)c4ccccc4)cc32)CC1 | inactive | 0.15 | inactive |
|  |  |  |  |  | O=C(NCCO)Nc1nc2ccc(C(=O)c3ccccc3)cc2[nH]1 |  | 0.13 |  |
| 0.18 | > 30 | > 30 | 0.1 |  | O=C(NCCC1CCNCC1)Nc1nc2ccc(C(=O)c3ccccc3)cc2[nH]1 | inactive | 0.13 | inactive |
| 0.3 | > 30 | > 30 |  |  | Nc1nc2ccc(C(=O)c3ccccc3)cc2n1CCN1CCCCC1 | inactive | 0.16 | inactive |
| 0.11 | > 30 | > 30 |  |  | O=C(CCC1CCNCC1)Nc1nc2ccc(C(=O)c3ccccc3)cc2[nH]1 | inactive | 0.041 | inactive |
| 0.18 | > 30 | > 30 |  |  | O=C(NCCO)Nc1nc2cc(C(=O)c3ccccc3)ccc2[nH]1 | inactive |  | inactive |
| 0.59 | > 30 | > 30 |  |  | O=C(NCCCCO)Nc1nc2ccc(C(=O)c3ccccc3)cc2[nH]1 | inactive | 0.38 | inactive |
| 0.071 | > 30 | > 30 |  |  | CN1CCC[C@H]1CCn1c(N)nc2ccc(C(=O)c3ccccc3)cc21 | inactive | 0.068 | inactive |
| 0.92 | > 30 | > 30 |  |  | COC(=O)Nc1nc2cc(C(=O)c3ccccc3)ccc2[nH]1 [MEBENDAZOLE] | inactive |  | inactive |
| 1.41 | > 30 | > 30 |  |  | N[C@@H](Cc1ccc(O)cc1)C(=O)Nc1nc2ccc(C(=O)c3ccccc3)cc2[nH]1 | inactive | 0.52 | inactive |
| 0.082 | > 30 | > 30 |  |  | O=C(CCCC1CCNCC1)Nc1nc2ccc(C(=O)c3ccccc3)cc2[nH]1 | inactive | 0.018 | inactive |
| 0.036 | > 30 | > 30 | > 10 | > 10 | CN1CCN(CCn2c(N)nc3ccc(C(=O)c4ccccc4)cc32)CC1 | inactive | 0.043 | inactive |
| 0.13 | > 30 | > 30 |  |  | CC(C)(C)Cn1c(N)nc2ccc(C(=O)c3ccccc3)cc21 | inactive | 0.063 | inactive |
| > 3 |  |  |  |  | COC(=O)Nc1nc2ccc(C(O)c3ccccc3)cc2[nH]1 (stereo not given) |  | > 3 |  |
|  | > 30 | > 30 | > 10 | > 10 | Nc1nc2ccc(C(=O)c3ccccc3)cc2n1CC1CCNCC1 | inactive |  | inactive |
| > 3 | > 30 | > 30 |  |  | O=C(c1ccccc1)c1ccc2nc(NCCO)[nH]c2c1 | inactive | > 3 | inactive |
| 0.86 | > 30 | > 30 |  | > 10 | NCCC(=O)Nc1nc2ccc(C(=O)c3ccccc3)cc2n1CC1CCNCC1 | inactive | 0.57 | inactive |
| 0.87 | > 30 | > 30 |  |  | Nc1nc2ccc(C(=O)c3ccccc3)cc2n1C[C@H]1CCCN1 | inactive | 1 | inactive |

| SMILES | IC50 [2] [µM] | EC50 [5] [µM] | EC50 [6] [µM] | IC50 [7] [µM] | IC50 [8] [µM] | Activity [1] | IC50 [3] [µM] | Activity [4] |
| --- | --- | --- | --- | --- | --- | --- | --- | --- |
| Nc1nc2ccc(C(=O)c3ccccc3)cc2n1CCN1CCOCC1 | 0.39 | > 30 | > 30 |  |  | inactive | 0.22 | inactive |
| Nc1nc2ccc(C(=O)c3ccccc3)cc2n1CC[C@H]1CCCN1 | 0.095 | > 30 | > 30 |  |  | inactive | 0.065 | inactive |
| Nc1nc2ccc(C(=O)c3ccccc3)cc2n1C[C@H]1CCNC1 | 0.12 | > 30 | > 30 |  |  | inactive | 0.12 | inactive |
| O=C(NCCC1CCCNC1)Nc1nc2ccc(C(=O)c3ccccc3)cc2[nH]1 (stereo not given) | 0.16 | > 30 | > 30 |  |  | inactive | 0.12 | inactive |
| Nc1nc2ccc(C(=O)c3ccccc3)cc2n1CCc1ccc(F)cc1 | 0.95 | > 30 | > 30 |  |  | inactive | 0.19 | inactive |
| CN1CCN(CCCn2c(N)nc3ccc(C(=O)c4ccccc4)cc32)CC1 | 0.17 | > 30 | > 30 |  |  | inactive | 0.18 | inactive |
| O=C(c1ccccc1)c1ccc2nc(NC(=O)[C@@H]3CCCN3)[nH]c2c1 | 0.13 | > 30 | > 30 |  |  | inactive | 0.16 | inactive |
| N[C@@H](Cc1c[nH]cn1)C(=O)Nc1nc2ccc(C(=O)c3ccccc3)cc2[nH]1 | 0.32 | > 30 | > 30 |  |  | inactive | 0.14 | inactive |
| O=C(CC1CCNCC1)Nc1nc2ccc(C(=O)c3ccccc3)cc2[nH]1 | 0.12 | > 30 | > 30 |  |  | inactive | 0.06 | inactive |
| NCCC(=O)Nc1nc2ccc(C(=O)c3ccccc3)cc2[nH]1 | 0.13 | > 30 | > 30 |  |  | inactive | 0.18 | inactive |
| Nc1nc2ccc(C(=O)c3ccccc3)cc2n1CCC1CCNCC1 | 0.017 | > 30 | > 30 | > 10 | > 10 | inactive | 0.02 | inactive |
| COC(=O)Nc1nc2ccc(C(=O)c3ccccc3)cc2[nH]1 [MEBENDAZOLE] |  |  |  | 5 | > 10 |  | 0.67 |  |
